{"source": "patent US20210207082A1", "about": "“SPHERICAL 3D TUMOR SPHEROID” (KOREA INSTITUTE OF SCIENCE AND TECHNOLOGY, priority 2019, published 2021)", "key": {"BMSC+MDA-MB-231 spheroid [1]": {"tested_on": "BMSC+MDA-MB-231 spheroid", "assay": "Real Time-Glo MT cell viability assay, 3D multicellular tumor spheroid", "format": "cell-based", "conditions": "Homo sapiens, 48 h; 10 μM doxorubicin for two days"}, "FIB+MDA-MB-231 spheroid [2]": {"tested_on": "FIB+MDA-MB-231 spheroid", "assay": "Real Time-Glo MT cell viability assay, 3D multicellular tumor spheroid", "format": "cell-based", "conditions": "Homo sapiens, 48 h; 10 μM doxorubicin for two days"}, "ASC+MDA-MB-231 spheroid [3]": {"tested_on": "ASC+MDA-MB-231 spheroid", "assay": "Real Time-Glo Annexin V apoptosis assay, 3D spheroid", "format": "cell-based, human", "conditions": "10 μM doxorubicin, 48 hours", "protocol": "(§1) Apoptotic and necrotic cells in spheroids were assayed using Real Time-Glo™ Annexin V apoptosis and necrosis assays. Real Time-Glo™ Annexin V apoptosis and necrosis assays were performed in combination with a cell viability assay. […] Thereafter, 2X apoptosis and necrosis formulations of the same volume (100 μL) were added to each well according to standard protocol proposed in manufacturer's instructions.\n(§2) To investigate drug sensitivity depending on the viability against doxorubicin in the spheroids, Real Time-Glo™ Annexin V apoptosis and necrosis assays were performed. If apoptosis is induced by a drug response, a cell membrane is reversed to expose phosphatidyl-serine (PS), and an apoptotic cell can be analyzed by binding PS with Annexin V detected by a luminescence signal. A necrotic cell is detected by binding DNA with PI (green) that produces a fluorescence signal when the necrotic cell invades into a cell and a cell membrane loses integrity."}, "BMSC+MDA-MB-231 spheroid [4]": {"tested_on": "BMSC+MDA-MB-231 spheroid", "assay": "Real Time-Glo Annexin V apoptosis assay, 3D spheroid", "format": "cell-based, human", "conditions": "10 μM doxorubicin, 48 hours", "protocol": "as §1, §2"}, "FIB+MDA-MB-231 spheroid [5]": {"tested_on": "FIB+MDA-MB-231 spheroid", "assay": "Real Time-Glo Annexin V apoptosis assay, 3D spheroid", "format": "cell-based, human", "conditions": "10 μM doxorubicin, 48 hours", "protocol": "as §1, §2"}, "[6]": {"tested_on": "3D multicellular tumor spheroids (ASC, BMSC or FIB + MDA-MB-231)", "assay": "Necrosis (PI) assay, three types of 3D spheroids", "format": "cell-based, human", "conditions": "10 μM doxorubicin, 48 hours", "protocol": "as §1, §2"}, "[7]": {"tested_on": "three types of 3D spheroids versus 2D monolayer", "assay": "3D versus 2D comparison of cell viability", "format": "cell-based, human", "conditions": "doxorubicin"}, "ASC+MDA-MB-231 spheroid [8]": {"tested_on": "ASC+MDA-MB-231 spheroid", "assay": "Real Time-Glo MT cell viability assay, 3D multicellular tumor spheroid"}}}
{"smiles": "COc1cccc2c1C(=O)c1c(O)c3c(c(O)c1C2=O)C[C@@](O)(C(=O)CO)C[C@@H]3O[C@H]1C[C@H](N)[C@H](O)[C@H](C)O1", "note": "[doxorubicin]", "values": [{"measurement": "viability at 10 µM", "setting": "BMSC+MDA-MB-231 spheroid [1]", "result": 48.3, "unit": "%"}, {"measurement": "viability at 10 µM", "setting": "FIB+MDA-MB-231 spheroid [2]", "result": 43, "unit": "%"}, {"measurement": "apoptosis (Annexin V) fold change", "setting": "ASC+MDA-MB-231 spheroid [3]", "result": 9, "unit": "fold"}, {"measurement": "apoptosis (Annexin V) fold change", "setting": "BMSC+MDA-MB-231 spheroid [4]", "result": 10, "unit": "fold"}, {"measurement": "apoptosis (Annexin V) fold change", "setting": "FIB+MDA-MB-231 spheroid [5]", "result": "about 13 times"}, {"measurement": "necrosis (PI), difference between spheroid types", "setting": "[6]", "result": "No significant difference"}, {"measurement": "drug sensitivity of 3D spheroids compared with 2D monolayer", "setting": "[7]", "result": "lower drug sensitivity"}, {"measurement": "cell viability", "setting": "ASC+MDA-MB-231 spheroid [8]; 10 μM doxorubicin for two days", "result": 56.67, "unit": "%"}, {"measurement": "viability, compared with other co-culture ratios", "setting": "ASC+MDA-MB-231 spheroid [8]; ASC:MDA-MB-231 co-culture ratio 5:5, 10 μM doxorubicin, 48 hours", "result": "highest"}]}
